According to patent US9056847B2, “Activity based probes (ABPs) interacting with glycosidases” (ACADEMISCH MEDISCH CENTRUM BIJ UNIVERSITEIT VAN AMSTERDAM, priority 2010, dated 2015):
Like-named read-outs stand apart in the source and are kept apart here.

Tests used:
GBA1 [1] = target: GBA1 (Homo sapiens (Human), UniProt P04062, N370S); test: In situ labeling of GBA1 in Gaucher (N370S) fibroblasts; format: cell-based; conditions: 20 nM for 1 hour, N370S GBA1 homozygote fibroblasts
Method: FIG. 20 presents a schematic illustration of Gaucher treatment (FIG. 20a) via the chaperone isofagimine, whose structure is separately shown in FIG. 20b. […] The fibroblasts were labeled with Fluorophore 1-cyclophellitol (for example 20 nM for 1 hour), wherein about 50% of cellular GBA1 was labeled.

GBA1 [2] = target: GBA1 (Homo sapiens (Human), UniProt P04062); test: Kinetic constants of GBA1 inhibition (Table 2); format: biochemical; conditions: Table 2 kinetic constants
GBA1 (Homo sapiens (Human), UniProt P04062), sequence (P04062 40-536): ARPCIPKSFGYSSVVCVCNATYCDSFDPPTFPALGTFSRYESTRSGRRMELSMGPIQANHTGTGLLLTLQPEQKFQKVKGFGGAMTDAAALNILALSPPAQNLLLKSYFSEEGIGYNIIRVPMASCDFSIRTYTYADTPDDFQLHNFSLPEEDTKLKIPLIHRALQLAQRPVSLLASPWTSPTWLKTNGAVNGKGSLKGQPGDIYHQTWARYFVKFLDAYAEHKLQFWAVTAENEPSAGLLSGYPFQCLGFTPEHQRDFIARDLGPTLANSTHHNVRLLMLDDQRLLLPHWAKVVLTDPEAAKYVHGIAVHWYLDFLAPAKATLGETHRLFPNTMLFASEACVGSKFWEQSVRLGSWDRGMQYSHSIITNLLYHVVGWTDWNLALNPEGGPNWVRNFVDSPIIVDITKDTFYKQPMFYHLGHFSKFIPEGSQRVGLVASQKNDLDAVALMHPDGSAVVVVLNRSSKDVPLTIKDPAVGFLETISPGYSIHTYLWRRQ

GBA [3] = target: T1, GBA (Homo sapiens (Human), UniProt P04062, R534H); test: Continuous substrate release assay for inhibition constants; format: biochemical
T1 sequence (P04062 40-536 R534H): as the sequence (P04062 40-536) above, with R495H counted along it
Source text: Previously discontinuous methods have been used to determine the inhibition constants of glycosidase inhibitors. […] Therefore the inhibition constants have been determined in a continuous substrate assay which was first described in 1982 (2) and has recently been reappraised in 2010 (3). In these experiments, inhibition of the enzyme and hydrolysis of the substrate proceed concurrently making the situation slightly more complex than the discontinuous (FIG. 39 Scheme 2). The time-dependent interaction of inhibitor (I) with free β-glucosidase (E) was considered to occur in separate stages (A). A rapid reversible interaction is followed by a slower, irreversible reaction that transforms the reversible enzyme-inhibitor complex (EI) into an irreversible enzyme-inhibitor complex (EI*) (FIG. 39 Scheme 2). Progress curves were obtained (FIG. 28a) and apparent rate constant k′ was plotted versus the concentration (FIG. 28b) to obtain estimates of the Ki (equilibrium constant) and ki (rate constant)
To 100 μL McIlvaine buffer (pH 5.2, 0.2% sodium taurocholate, 0.1% Triton X-100) containing 4-methylumbelliferyl β-D-glucoside (7.5 mM) in Greiner flat bottom black 96-well plate was added 5 μL inhibitor (25× stock in DMSO). The resulting mixture was preincubated at 37° C. for 15 min in a TECAN GENios microplate reader. GBA (2 ng) in McIlvaine buffer (20 μL pH 5.2, 0.2% sodium taurocholate, 0.1% Triton X-100) was preheated to 37° C. for 15 min before being added to the substrate mix. The resulting solution was mixed by horizontal shaking for 15 sec, after which release 4-methylumbelliferyl measured with a TECAN GENios platereader (λex 340 nm and λem 465 nm) for the indicated time. Bleaching of the fluorophore, which was observed during the assay, was corrected by subtracting blanks (100 μL substrate buffer, 5 μL DMSO, 20 μL McIlvaine buffer). Apparent rate constants k′ were obtained by fitting the resulting progress curves (FIG. 28A) to the one-phase association equitation y (y max y0)(1−exp^−kt)yo+in GraphPad Prism version 5.00 for Windows, GraphPad Software, San Diego Calif. USA, www.graphpad.com. Measurements were performed in nine fold and plotting of the obtained k′ values versus [^I0] yielded rectangular hyperbolar functions (FIG. 28B).
[formula] estimates of Ki app and ki were obtained. The Ki value in the absence of substrate was obtained by correcting the Ki app with […]

GBA [4] = target: T1, GBA; test: Sensitivity of detection of ABP-labeled GBA on slab gel by fluorescence scanning
Method: After the incubation, we resolved the protein preparations with SDS-PAGE and analyzed the labeled proteins by fluorescence scanning of the slab gel on a Typhoon Variable Mode Imager (FIG. 24a). Labeled recombinant GBA migrated at the expected mass of 57 kDa. […] We could detect as little as 20 attomol GBA by fluorescence scanning. […] Apparently, nearly all of the probe had been covalently bound to recombinant GBA, consistent with its high affinity for binding.

glucocerebrosidase = glucocerebrosidase (Homo sapiens (Human), UniProt P04062); test: In situ inhibition of glucocerebrosidase in cells at 18° C. and 37° C.; format: cell-based; conditions: 10 nM, 2 hours
glucocerebrosidase, sequence (P04062 40-536): as the sequence (P04062 40-536) above
Source text: To identify the mechanism of entry of the probes, we performed a temperature experiment. […] We harvested the cells and determined the residual activity using a fluorogenic substrate assay. […] We therefore exclude that the uptake is solely by endocytosis.

GBA [5] = target: T1, GBA; test: GBA enzyme activity assay with 4-methylumbelliferyl β-D-glucopyranoside, inhibitor preincubated 30 min (apparent IC50); format: biochemical
GBA [6] = target: T2, GBA (Mus musculus (Mouse), UniProt P17439); test: Labeling of GBA in live mice; format: in vivo; conditions: 0.1 nmol intravenously, 2 h
Method: We next studied the labeling of GBA by MDW941 in intact fibroblasts using time-lapse microscopy. […] As a control, matched mice received the buffer solution intravenously. […] In addition to GBA, MDW933 clearly labeled other proteins that occur in the intestine in the mouse.
Experimental procedures were all approved by the appropriate ethics committee for animal experiments. C57BI/6J mice were obtained from Harlan and fed a commercially available lab diet (RMH-B; Hope Farms). […] After 2 h of administration the mice were anesthetized with FFM mix (1 ml of fentanylcitrate, 1 ml of midazalam and 2 ml of distilled water), and blood, urine and organs were collected and directly frozen in liquid nitrogen. […] Homogenates were analyzed as described above.
Target sequence in this assay (P17439 20-515): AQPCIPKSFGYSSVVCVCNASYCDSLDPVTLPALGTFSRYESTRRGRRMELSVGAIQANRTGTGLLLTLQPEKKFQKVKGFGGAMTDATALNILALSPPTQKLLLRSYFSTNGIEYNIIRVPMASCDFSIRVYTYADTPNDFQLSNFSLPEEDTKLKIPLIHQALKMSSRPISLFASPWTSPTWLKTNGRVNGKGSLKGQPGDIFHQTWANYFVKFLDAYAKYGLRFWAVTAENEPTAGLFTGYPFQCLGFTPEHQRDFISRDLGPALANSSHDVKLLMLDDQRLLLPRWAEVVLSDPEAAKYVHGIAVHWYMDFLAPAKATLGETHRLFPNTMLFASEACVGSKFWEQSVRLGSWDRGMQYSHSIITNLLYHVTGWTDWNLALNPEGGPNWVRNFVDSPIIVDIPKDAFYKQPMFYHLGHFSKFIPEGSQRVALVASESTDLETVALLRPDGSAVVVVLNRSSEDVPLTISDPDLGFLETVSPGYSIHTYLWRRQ

[7] = test system: lactase (lactase-phloridzin hydrolase: LPH); test: Lactase activity inhibition (liberated glucose); conditions: incubation for 30 min with 1 mM
GBA [8] = target: T2, GBA; test: Labeling specificity in cell homogenates (SDS-PAGE, fluorescence scanning); conditions: 100 nM, 30 min, 37° C., homogenates of cultured RAW cells
Target sequence in this assay (P17439 20-515 limits assumed): as the sequence (P17439 20-515) above

GBA1 (Homo sapiens (Human), UniProt P04062, N370S), sequence (P04062 40-536 N409S): as the sequence (P04062 40-536) above, with N370S counted along it

cellular GBA1 labeled (GBA1 [1]): about 50% | Ki (GBA1 [2]): 0.95 nM | ki (GBA1 [2]): 0.0236 min⁻¹ | Ki (GBA [3]; equilibrium constant for initial binding, reported with s.e.m.): 7 ± 2 nM | ki (GBA [3]; rate constant, reported with s.e.m.): 0.127 ± 0.024 min⁻¹ | ki/Ki (GBA [3]; relative rate constant): 296000 M⁻¹ s⁻¹ | amount of labeled GBA detectable by fluorescence scanning (GBA [4]; 2 pmol GBA with excess probe, 1 h, 37° C., titration on gel): 20 attomol | amount of probe resulting in detectable GBA on slab gel (GBA [4]; 2 pmol GBA, 30 min): 20 attomol | amount of GBA1 detected on slab gel (GBA [4]; ABP-labeled GBA1): 10 attomole | IC50 (GBA [5]; FIG. 16, ABPs designed for GBA1, read-out: IC50): 2 nM | IC50 (GBA [5]; rec. GBA1, 30 min, 37 C., pH 5.2 + Tch, Tr, read-out: Apparent IC50 (nM) rec. GBA1: 30 min, 37 C., pH 5.2 + Tch, Tr): 2 ± 0.5 nM | IC50 (GBA [5]; recombinant GBA, read-out: apparent half-maximal inhibitory concentration (IC50)): 1.24 ± 0.04 nM | in vivo labeling of GBA in brain (GBA [6]; brain): almost no GBA | in vivo labeling of GBA in most tissues (GBA [6]; lung and liver): a considerable proportion of GBA | inhibition of lactase activity [7]: ~90% | labeling specificity (GBA [8]): exclusive labeling of GBA
SMILES: CC1=CC(C)=[N+]2C1=C(CCCCc1cn(C[C@@H]3[C@@H](O)[C@H](O)[C@@H](O)[C@@H]4O[C@H]34)nn1)c1c(C)cc(C)n1[B-]2(F)F [MDW933]
in situ glucocerebrosidase activity (glucocerebrosidase): blocked glucocerebrosidase activity in situ
